The values below come from patent US20250230138A1, “COMPOUNDS HAVING A T-STRUCTURE FORMED BY AT LEAST FOUR CYCLES FOR USE IN THE TREATMENT OF CANCER AND OTHER INDICATIONS” (TheRas, Inc., priority 2022, published 2025).

Where two headings read alike, the source gives them in different places. Bounds are passed on as bounds.

Test [1] has as its target Cys242 in human PIK3CA (157-299) (Homo sapiens (Human), UniProt P42336). As to the kind of experiment: Covalent modification assay using MALDI-TOF MS. Conditions: 4 h reaction time point. The format is biochemical. In a few lines:
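PIK3CA (157-299), 3.33 or 1 μM in 20 mM HEPES, 150 mM NaCl, 2 mM MgCl2, pH 7.3, was incubated with compound at room temperature in the dark for 15 min, 30 min, 2 h or 4 h. Linear MALDI-TOF read-out; % modification = adduct peak height over summed heights of all protein species.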

Another test has as its system pAKT in BT474 cells. Description: Cell-based pAKT HTRF assay in BT474 cells. The note with it: BT474 cells, 4 hr incubation, read-out: pAKT inhibition IC50 in BT474 cells. In a few lines:
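BT474 cells in DMEM/10% FBS were treated the day after seeding with a 9-point, 3-fold compound series from 3 μM (0.25% DMSO) for 4 hr. Lysates were mixed with d2 and Eu cryptate anti-pAKT antibodies and incubated 4-24 h at room temperature. HTRF was read with excitation at 320 nm and emission at 615 nm.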

Setting [2] is: 1 μM protein target, 1:5 protein to compound ratio (compounds 853-1279).
Setting [3] is: 3.33 μM protein target, 1:7.5 protein to compound ratio (compounds 1-852).
Setting [4] is: Homo sapiens, BT-474, Compounds 10-999.

Chain of Cys242 in human PIK3CA (157-299) (P42336 157-299): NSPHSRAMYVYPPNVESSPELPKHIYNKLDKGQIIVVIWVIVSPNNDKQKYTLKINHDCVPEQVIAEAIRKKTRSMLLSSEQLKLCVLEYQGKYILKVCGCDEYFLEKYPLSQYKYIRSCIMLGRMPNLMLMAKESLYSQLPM

As for `C=CC(=O)N1Cc2cc(-c3nc(-c4ccc5c(c4)CNC5=O)c4ccsc4c3-c3c(F)cc(F)cc3OCCO)nn2CC1C` (stereo not drawn) [Compound 904], the “% of modification” value in test [1] (setting [2]) is “A (percent of modification of PIK3CA protein ≥75%)”. Further, the concentration for half-maximal inhibition (IC50) in the test with pAKT in BT474 cells (Compounds 10-999) is < 100 nM.
Taken in the same sequence, the figures for `C=CC(=O)N1CCn2nc(-c3nc(-c4ccc(N5CCN(C)CC5)nc4)c4ccsc4c3-c3c(F)cc(F)cc3OCCOC)cc2C1C` (stereo not drawn) [Compound 930] were “A (percent of modification of PIK3CA protein ≥75%)” and < 100 nM.
Regarding `C=CC(=O)N1CCn2nc(-c3nc(-c4ccc5c(c4)[C@H](O)CC5)c4ccsc4c3-c3ccc(F)cc3OCCOC)cc2C1` [Compound 257], in test [1] (setting [3]), the “% of modification” value is reported as “A (percent of modification of PIK3CA protein ≥75%)”. In addition, in the test with pAKT in BT474 cells (Compounds 10-999), the IC50 was < 100 nM.
For `C=CC(=O)N1CCn2nc(-c3nc(-c4ccc(OCCN(C)C)c(F)c4)c4ccsc4c3-c3c(F)cc(F)cc3OCCOC)cc2C1C` (stereo not drawn) [Compound 1077], the “% of modification” value in test [1] (setting [2]) is “A (percent of modification of PIK3CA protein ≥75%)”. The IC50 in the test on pAKT in BT474 cells (Compounds 1000-1279) was < 100 nM.
Take `C=CC(=O)N1CCc2ncc(-c3nc(-c4ccc5c(c4)CCNC5)c4ccsc4c3-c3ccc(F)cc3OCCOC)cc2C1` [Compound 62, 1-[3-[7-[4-fluoro-2-(2-methoxyethoxy)phenyl]-4-(1,2,3,4-tetrahydroisoquinolin-6-yl)thieno[3,2-c]pyridin-6-yl]-7,8-dihydro-5H-1,6-naphthyridin-6-yl]prop-2-en-1-one]: the “% of modification” value in test [1] (setting [3]) was “A (percent of modification of PIK3CA protein ≥75%)”. The IC50 in the test with pAKT in BT474 cells (setting [4]) was < 100 nM.
For the molecule `C=CC(=O)N1CCn2nc(-c3nc(-c4ccnc(N)c4)c4ccsc4c3-c3ccc(F)cc3OC(F)F)nc2C1` [Compound 217], the “% of modification” value in test [1] (setting [3]) was “A (percent of modification of PIK3CA protein ≥75%)”. Also, the IC50 in the test on pAKT in BT474 cells (Compounds 10-999) is < 100 nM.
Regarding `C=C(F)C(=O)N1CCn2nc(-c3nc(-c4ccc5c(c4)CNC5=O)c4ccsc4c3-c3c(Cl)cccc3OC(C)C)cc2C1` [Compound 472], the “% of modification” value in test [1] (setting [3]) is given as “B (50%<percent of modification <75%)”. In the test on pAKT in BT474 cells (Compounds 10-999), the half-inhibitory concentration (IC50) is 100 to 1000 nM.
Taken in the same sequence, the figures for `C=CC(=O)N1CCn2nc(-c3nc(-c4ccc(=O)n(C)c4)c4ccsc4c3-c3ccc(F)cc3OC(C)C)cc2C1` [Compound 201] were “A (percent of modification of PIK3CA protein ≥75%)” and < 100 nM.
Taken in the same sequence, the figures for `C=CC(=O)N1CCn2nc(-c3nc(-c4ccc5c(c4)CN(C)C5=O)c4ccsc4c3-c3c(F)cc(F)cc3OCCOC)cc2[C@H]1C` [Compound 539] were “A (percent of modification of PIK3CA protein ≥75%)” and < 100 nM.
Take `C=CC(=O)N1CCc2ncc(-c3nc(-c4cn(C)cn4)c4ccsc4c3-c3c(F)cc(F)cc3OCCOC)cc2C1` [Compound 943]: the “% of modification” value in test [1] (setting [2]) is reported as “A (percent of modification of PIK3CA protein ≥75%)”. Further, the IC50 in the test with pAKT in BT474 cells (Compounds 10-999) was < 100 nM.
Turning to `C=CC(=O)N1CCn2nc(-c3nc(-c4cnc(C)nc4)c4ccsc4c3-c3c(F)cc(F)cc3OCC(C)O)cc2C1C` (stereo not drawn) [Compound 791], the “% of modification” value in test [1] (setting [3]) is “A (percent of modification of PIK3CA protein ≥75%)”. The IC50 with pAKT in BT474 cells (Compounds 10-999) is < 100 nM.
Take `C=CC(=O)N1Cc2cc(-c3nc(-c4ccc5c(c4)CN(C)C5=O)c4ccsc4c3-c3c(F)cc(F)cc3OC)nn2C(C)C1` (stereo not drawn) [Compound 946]: the “% of modification” value in test [1] (setting [2]) was “A (percent of modification of PIK3CA protein ≥75%)”. For the same molecule, in the test with pAKT in BT474 cells (Compounds 10-999), the IC50 was < 100 nM.
On to `C=CC(=O)N1Cc2cc(-c3nc(-c4cnccn4)c4ccsc4c3-c3c(F)cc(F)cc3OCCOC)nn2C[C@H]1C` [Compound 840], for which the “% of modification” value in test [1] (setting [3]) is listed as “A (percent of modification of PIK3CA protein ≥75%)”. Moreover, the IC50 in the test with pAKT in BT474 cells (Compounds 10-999) is < 100 nM.
Turning to `C=CC(=O)N1CCn2nc(-c3nc(-c4ccc5nn(C)cc5c4)c4ccsc4c3-c3c(F)cc(F)cc3OCC(C)(C)O)cc2[C@H]1C` [Compound 1129], the “% of modification” value in test [1] (setting [2]) is listed as “A (percent of modification of PIK3CA protein ≥75%)”. Besides, in the test with pAKT in BT474 cells (Compounds 1000-1279), the half-maximal inhibitory concentration (IC50) was < 100 nM.
For the molecule `C=CC(=O)N1CCn2nc(-c3nc(-c4ccc5cnn(C)c5c4)c4ccsc4c3-c3c(F)cc(F)cc3OCCO)cc2[C@H]1C` [Compound 776], the “% of modification” value in test [1] (setting [3]) is recorded as “A (percent of modification of PIK3CA protein ≥75%)”. Moreover, the IC50 with pAKT in BT474 cells (Compounds 10-999) is < 100 nM.
For `C=CC(=O)N1CCc2sc(-c3nc(-c4ccc5c(c4)CCNC5)c4ccsc4c3-c3ccc(F)cc3OCCOC)nc2C1` [Compound 146], in that order: “A (percent of modification of PIK3CA protein ≥75%)” and < 100 nM.
For `C=CC(=O)N1CC(n2cc(-c3nc(-c4ccc5c(c4)CCNC5)c4ccsc4c3-c3ccc(F)cc3OCCOC)cc(C)c2=O)C1` [Compound 178], in that order: “A (percent of modification of PIK3CA protein ≥75%)” and < 100 nM.
For `C=CC(=O)N1CCn2nc(-c3nc(-c4cnn(C)c4)c4ccsc4c3-c3ccc(F)cc3OC(C)C)c(C)c2C1` [Compound 320], in that order: “A (percent of modification of PIK3CA protein ≥75%)” and < 100 nM.
Consider `C=CC(=O)N1CCn2nc(-c3nc(-c4ccc5nncn5c4)c4ccsc4c3-c3c(F)cc(F)cc3OCCO)cc2[C@H]1C` [Compound 892], for which, in test [1] (setting [2]), the “% of modification” value is recorded as “A (percent of modification of PIK3CA protein ≥75%)”. Besides, in the test with pAKT in BT474 cells (Compounds 10-999), the IC50 is < 100 nM.
Turning to `C=CC(=O)N1Cc2cc(-c3nc(-c4cnnc(C)c4)c4ccsc4c3-c3c(F)cc(F)cc3OCCO)nn2C(C)C1` (stereo not drawn) [Compound 787], the “% of modification” value in test [1] (setting [3]) was “D (percent of modification <25%)”. Further, in the test on pAKT in BT474 cells (Compounds 10-999), the IC50 was 100 to 1000 nM.
On to `C=CC(=O)N1CCn2nc(-c3nc(N4CCC5(CN(C)C5)C4)c4ccsc4c3-c3c(F)cc(F)cc3OCCOC)cc2C1C` (stereo not drawn) [Compound 1055], for which the “% of modification” value in test [1] (setting [2]) is given as “C (25%≤percent of modification <50%)”. The IC50 with pAKT in BT474 cells (Compounds 1000-1279) fell in the range of 100 to 1000 nM.
As to `C=CC(=O)N1CCc2c(nc(-c3nc(-c4ccc5c(c4)CCNC5)c4ccsc4c3-c3ccc(F)cc3OCCOC)n2C)C1` [Compound 99], the “% of modification” value in test [1] (setting [3]) is “A (percent of modification of PIK3CA protein ≥75%)”. The IC50 in the test on pAKT in BT474 cells (Compounds 10-999) is < 100 nM.
For `C=CC(=O)N1CCn2nc(-c3nc(-c4cnn(C)c4)c4ccsc4c3-c3ccc(F)cc3OC(C)C)nc2C1` [Compound 225], in that order: “A (percent of modification of PIK3CA protein ≥75%)” and < 100 nM.
Taken in the same sequence, the figures for `C=CC(=O)N1CCn2nc(-c3nc(-c4ccc(=O)n(C)c4)c4ccsc4c3-c3ccc(F)cc3OC(F)F)cc2C1` [Compound 223] were “A (percent of modification of PIK3CA protein ≥75%)” and < 100 nM.
`C=CC(=O)N1CCn2nc(-c3nc(-c4cnc5c(c4)CN(C)C5=O)c4ccsc4c3-c3c(F)cc(F)cc3OCCO)cc2C1C` (stereo not drawn) [Compound 924]: in test [1] (setting [2]), the “% of modification” value was “A (percent of modification of PIK3CA protein ≥75%)”. For the same molecule, the IC50 in the test with pAKT in BT474 cells (Compounds 10-999) was < 100 nM.
As for `C=CC(=O)N1CCn2nc(-c3nc(-c4ccc5c(c4)CCN(C)C5)c4ccsc4c3-c3c(F)cc(F)cc3OC3CC3)cc2C1C` (stereo not drawn) [Compound 549], in test [1] (setting [3]), the “% of modification” value was “A (percent of modification of PIK3CA protein ≥75%)”. In addition, the IC50 in the test with pAKT in BT474 cells (Compounds 10-999) is < 100 nM.
`C=CC(=O)N1CCn2nc(-c3nc(-c4ccc5c(c4)NC(=O)CN(C)C5)c4ccsc4c3-c3c(F)cc(F)cc3OCCO)cc2C1C` (stereo not drawn) [Compound 1195]: the “% of modification” value in test [1] (setting [2]) is “A (percent of modification of PIK3CA protein ≥75%)”. For the same molecule, the IC50 in the test on pAKT in BT474 cells (Compounds 1000-1279) is < 100 nM.
Take `C=CC(=O)N1Cc2cc(-c3nc(-c4cnnc(C)c4)c4ccsc4c3-c3c(F)cc(F)cc3OCCO)nn2C(C)C1` (stereo not drawn) [Compound 788]: the “% of modification” value in test [1] (setting [3]) is “A (percent of modification of PIK3CA protein ≥75%)”. Moreover, the IC50 in the test with pAKT in BT474 cells (Compounds 10-999) is < 100 nM.
Taken in the same sequence, the figures for `C=CC(=O)N1Cc2cc(-c3nc(-c4ccc5nn(C)cc5c4)c4ccsc4c3-c3c(F)cc(F)cc3OCCO)nn2CC1C` (stereo not drawn) [Compound 832] were “A (percent of modification of PIK3CA protein ≥75%)” and < 100 nM.
`C=CC(=O)N1CCn2nc(-c3nc(-c4cnn(C)c4)c4ccsc4c3-c3c(F)cc(F)cc3OCCOC)cc2[C@@H]1C` [Compound 649]: in test [1] (setting [3]), the “% of modification” value is listed as “A (percent of modification of PIK3CA protein ≥75%)”. Further, the IC50 with pAKT in BT474 cells (Compounds 10-999) was < 100 nM.
Taken in the same sequence, the figures for `C=CC(=O)N1CCc2ncc(-c3nc(-c4cnc5c(c4)CN(C)CC5)c4ccsc4c3-c3c(F)cc(F)cc3OCCOC)cc2C1` [Compound 378] were “A (percent of modification of PIK3CA protein ≥75%)” and < 100 nM.
With `C=CC(=O)N1CCC(c2cc(-c3nc(-c4ccc5c(c4)CCNC5)c4ccsc4c3-c3ccc(F)cc3OCCOC)c[nH]c2=O)C1` (stereo not drawn) [Compound 70, 5-[7-[4-fluoro-2-(2-methoxyethoxy)phenyl]-4-(1,2,3,4-tetrahydroisoquinolin-6-yl)thieno[3,2-c]pyridin-6-yl]-3-(1-prop-2-enoylpyrrolidin-3-yl)-1H-pyridin-2-one], the “% of modification” value in test [1] (setting [3]) is reported as “A (percent of modification of PIK3CA protein ≥75%)”. The IC50 in the test on pAKT in BT474 cells (setting [4]) lay within 100 to 1000 nM.
Take `C=CC(=O)N1Cc2cc(-c3nc(-c4cnc5oc(C)nc5c4)c4ccsc4c3-c3c(F)cc(F)cc3OCCOC)nn2C[C@H]1C` [Compound 825]: in test [1] (setting [3]), the “% of modification” value is “A (percent of modification of PIK3CA protein ≥75%)”. Besides, in the test on pAKT in BT474 cells (Compounds 10-999), the IC50 was < 100 nM.

In general, IC50 refers to the concentration that gives 50% inhibition.
